Measured values as given in US9062056B2, “Aza-benzimidazolone Chymase inhibitors” (Boehringer Ingelheim International GmbH, priority 2008, dated 2015).

These compounds were tested against T1, Chymase (Homo sapiens, UniProt P23946) (assay: In vitro assay for inhibition of Chymase (rhodamine 110 peptide substrate, fluorescence)). Settings: 500 pM chymase, 100 nM substrate, 100 μM TCEP, 1% DMSO, 28° C., 1 hour.
T1 sequence (P23946 22-247): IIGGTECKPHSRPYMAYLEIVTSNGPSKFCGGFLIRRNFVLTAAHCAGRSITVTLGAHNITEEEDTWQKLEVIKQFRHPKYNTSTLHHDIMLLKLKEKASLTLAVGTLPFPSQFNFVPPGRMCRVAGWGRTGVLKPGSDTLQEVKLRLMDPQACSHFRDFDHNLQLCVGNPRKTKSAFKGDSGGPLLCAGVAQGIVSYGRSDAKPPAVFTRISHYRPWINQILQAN
Type: biochemical
Experimental: IN VITRO ASSAY FOR INHIBITION OF CHYMASE
Chymase assays were performed in a total volume of 15 μL in Corning black opaque 384-well microtiter plates with a non-binding surface (Corning, N.Y.). The assay buffer was comprised of 20 mM Tris HCl pH 8.0, 50 mM NaCl, 0.01% CHAPS. The test compounds were serially diluted 3-fold with neat DMSO in a 96-well polypropylene plate from a 10 mM DMSO stock to give the 10 point dose response curve. 3 μL of the resulting DMSO solution were transferred to a 384-well polypropylene plate in duplicate, and 37 μL of assay buffer was added. Chymase was added to the assay plate in 3 uL of assay buffer followed by 2 uL of the appropriate compound dilution using a PlateMate Plus (Matrix Technologies Corp., Hudson, N.H.). The reaction was initiated by the addition of 10 uL rhodamine 110, bis-(succinoyl-L-alanyl-L-alanyl-L-prolyl-L-phenylalanylamide) (American Peptides, Sunnyvale, Calif.) in assay buffer containing 150 μM tris(2-carboxyethyl)phosphine (TCEP, Pierce Chemical, Rockford, Ill.) using a Multidrop (Thermo Electron Corp., Waltham, Mass.). Final assay concentrations were 500 pM chymase, 100 nM substrate, 100 μM TCEP, and 1% DMSO. The plates were incubated at 28° C. and 80% humidity for 1 hour, at which time the fluorescence was read on a Viewlux 1430 Microplate Imager (Perkin Elmer Life Sciences, Boston, Mass.) with 485 nm excitation, 530 nm emission, and a fluorescein dichroic mirror. The percentage of control values were calculated relative to assay blanks containing complete reaction minus chymase and a 100% control containing assay buffer with 1% DMSO in place of compound. IC50 values were obtained by fitting the data using XLFit4 (IDBS Software).

Compound	IC50
CCC[C@@H](CC(=O)NS(=O)(=O)c1cn(C)cn1)n1c(=O)n(Cc2cn(C)c3cccc(C)c23)c2cccnc21 [1-Methyl-1H-imidazole-4-sulfonic acid {(S)-3-[1-(1,4-dimethyl-1H-indol-3-ylmethyl)-2-oxo-1,2-dihydro-imidazo[4,5-b]pyridin-3-yl]-hexanoyl}-amide]	6.71 nM
CCCC(Cn1c(=O)n(Cc2cn(C)c3cccc(C)c23)c2cccnc21)C(=O)O (stereo not drawn) [2-[1-(1,4-Dimethyl-1H-indol-3-ylmethyl)-2-oxo-1,2-dihydro-imidazo[4,5-b]pyridin-3-ylmethyl]-pentanoic acid]	3 nM
CCCC(CC(=O)O)n1c(=O)n(Cc2cn(C)c3cccc(C)c23)c2ccc(C#N)nc21 (stereo not drawn) [3-[5-Cyano-1-(1,4-dimethyl-1H-indol-3-ylmethyl)-2-oxo-1,2-dihydro-imidazo[4,5-b]pyridin-3-yl]-hexanoic acid]	2.2 nM
Cc1ccc2c(n1)n([C@H](CC(=O)O)c1cccc(Cl)c1)c(=O)n2Cc1cn(C)c2cccc(C)c12 [(R)-3-(3-Chloro-phenyl)-3-[1-(1,4-dimethyl-1H-indol-3-ylmethyl)-5-methyl-2-oxo-1,2-dihydro-imidazo[4,5-b]pyridin-3-yl]-propionic acid]	7.07 nM
Cc1cc(C)c2c(Cn3c(=O)n([C@H](CC(=O)O)c4cccc(Cl)c4)c4nc(C)ccc43)nsc2c1 [(R)-3-(3-Chloro-phenyl)-3-[1-(4,6-dimethyl-1,2-benzisothiazol-3-ylmethyl)-5-methyl-2-oxo-1,2-dihydro-imidazo[4,5-b]pyridin-3-yl]-propionic acid]	6.26 nM
Cc1cccc2c1c(Cn1c(=O)n([C@H](CC(=O)O)c3ccccc3)c3ncccc31)cn2C [(R)-3-[1-(1,4-Dimethyl-1H-indol-3-ylmethyl)-2-oxo-1,2-dihydro-imidazo[4,5-b]pyridin-3-yl]-3-phenyl-propionic acid]	2.21 nM
Cc1ccc2c(n1)n([C@H](CC(=O)O)c1ccccc1)c(=O)n2Cc1cn(C)c2cccc(C)c12 [(R)-3-[1-(1,4-Dimethyl-1H-indol-3-ylmethyl)-5-methyl-2-oxo-1,2-dihydro-imidazo[4,5-b]pyridin-3-yl]-3-phenyl-propionic acid]	2.52 nM
Cc1ccc2c(n1)n([C@H](CC(=O)O)c1cccnc1)c(=O)n2Cc1cn(C)c2cccc(C)c12 [(R)-3-[1-(1,4-Dimethyl-1H-indol-3-ylmethyl)-5-methyl-2-oxo-1,2-dihydro-imidazo[4,5-b]pyridin-3-yl]-3-pyridin-3-yl-propionic acid]	10.7 nM
Cc1cc(C)c2c(Cn3c(=O)n([C@H](CC(=O)O)c4ccccc4)c4ncccc43)nsc2c1 [(R)-3-[1-(4,6-Dimethyl-benzo[d]isothiazol-3-ylmethyl)-2-oxo-1,2-dihydro-imidazo[4,5-b]pyridin-3-yl]-3-phenyl-propionic acid]	4.23 nM
Cc1cccc2c1c(Cn1c(=O)n([C@H](CC(=O)O)c3ccccc3)c3nc(C4CC4)ncc31)cn2C [(R)-3-[2-Cyclopropyl-7-(1,4-dimethyl-1H-indol-3-ylmethyl)-8-oxo-7,8-dihydro-purin-9-yl]-3-phenyl-propionic acid]	5 nM
Cc1cccc2c1c(Cn1c(=O)n([C@H](CC(=O)O)c3ccccc3)c3ccncc31)cn2C [(R)-3-[3-(1,4-Dimethyl-1H-indol-3-ylmethyl)-2-oxo-2,3-dihydro-imidazo[4,5-c]pyridin-1-yl]-3-phenyl-propionic acid]	3.91 nM
Cc1cc2c(cn1)n(Cc1cn(C)c3cccc(C)c13)c(=O)n2[C@H](CC(=O)O)c1ccccc1 [(R)-3-[3-(1,4-Dimethyl-1H-indol-3-ylmethyl)-6-methyl-2-oxo-2,3-dihydro-imidazo[4,5-c]pyridin-1-yl]-3-phenyl-propionic acid]	2.62 nM
Cc1cc(C)c2c(Cn3c(=O)n([C@H](CC(=O)O)c4ccccc4)c4cc(C)ncc43)nsc2c1 [(R)-3-[3-(4,6-Dimethyl-1,2-benzisothiazol-3-ylmethyl)-6-methyl-2-oxo-2,3-dihydro-imidazo[4,5-c]pyridin-1-yl]-3-phenyl-propionic acid]	4 nM
Cc1cc(C)c2c(Cn3c(=O)n([C@H](CC(=O)O)c4ccccc4)c4ccncc43)nsc2c1 [(R)-3-[3-(4,6-Dimethyl-benzo[d]isothiazol-3-ylmethyl)-2-oxo-2,3-dihydro-imidazo[4,5-c]pyridin-1-yl]-3-phenyl-propionic acid]	11.2 nM

The next compounds have a lower IC50 than those just listed; values first:

IC50	Compound
1.45 nM	Cc1cc(C)c2c(Cn3c(=O)n(CC4(C(=O)O)CCCCC4)c4nc(C)ccc43)nsc2c1 [1-[1-(4,6-Dimethyl-1,2-benzisothiazol-3-ylmethyl)-5-methyl-2-oxo-1,2-dihydro-imidazo[4,5-b]pyridin-3-ylmethyl]-cyclohexanecarboxylic acid]
1 nM	CCC[C@@H](CC(=O)NS(=O)(=O)C(C)(C)C)n1c(=O)n(Cc2cn(C)c3cccc(C)c23)c2cccnc21 [2-Methyl-propane-2-sulfonic acid {(S)-3-[1-(1,4-dimethyl-1H-indol-3-ylmethyl)-2-oxo-1,2-dihydro-imidazo[4,5-b]pyridin-3-yl]-hexanoyl}-amide]
1.93 nM	CCCC(CC(=O)O)n1c(=O)n(Cc2cn(C)c3cc(C)cc(C)c23)c2ccc(C(N)=O)nc21 (stereo not drawn) [3-[5-Carbamoyl-2-oxo-1-(1,4,6-trimethyl-1H-indol-3-ylmethyl)-1,2-dihydro-imidazo[4,5-b]pyridin-3-yl]-hexanoic acid]
1.06 nM	CCCC(CC(=O)O)n1c(=O)n(Cc2cn(C)c3cc(C)cc(C)c23)c2ccc(C#N)nc21 (stereo not drawn) [3-[5-Cyano-2-oxo-1-(1,4,6-trimethyl-1H-indol-3-ylmethyl)-1,2-dihydro-imidazo[4,5-b]pyridin-3-yl]-hexanoic acid]
0.255 nM	Cc1ccc2c(n1)n([C@H](CC(=O)O)c1ccc(Cl)cc1)c(=O)n2Cc1cn(C)c2cccc(C)c12 [(R)-3-(4-Chloro-phenyl)-3-[1-(1,4-dimethyl-1H-indol-3-ylmethyl)-5-methyl-2-oxo-1,2-dihydro-imidazo[4,5-b]pyridin-3-yl]-propionic acid]
0.624 nM	Cc1cc(C)c2c(Cn3c(=O)n([C@H](CC(=O)O)c4ccc(Cl)cc4)c4nc(C)ccc43)nsc2c1 [(R)-3-(4-Chloro-phenyl)-3-[1-(4,6-dimethyl-1,2-benzisothiazol-3-ylmethyl)-5-methyl-2-oxo-1,2-dihydro-imidazo[4,5-b]pyridin-3-yl]-propionic acid]
0.165 nM	Cc1cccc2c1c(Cn1c(=O)n([C@H](CC(=O)O)c3ccc(Cl)cc3)c3nc(C#N)ccc31)cn2C [(R)-3-(4-Chloro-phenyl)-3-[5-cyano-1-(1,4-dimethyl-1H-indol-3-ylmethyl)-2-oxo-1,2-dihydro-imidazo[4,5-b]pyridin-3-yl]-propionic acid]
0.2 nM	Cc1cc(C)c2c(Cn3c(=O)n([C@H](CC(=O)O)c4ccc(Cl)cc4)c4nc(C#N)ccc43)cn(C)c2c1 [(R)-3-(4-Chloro-phenyl)-3-[5-cyano-2-oxo-1-(1,4,6-trimethyl-1H-indol-3-ylmethyl)-1,2-dihydro-imidazo[4,5-b]pyridin-3-yl]-propionic acid]
0.2 nM	Cc1cc(C)c2c(Cn3c(=O)n([C@H](CC(=O)O)c4ccc(Cl)cc4)c4nc(C)ccc43)cn(C)c2c1 [(R)-3-(4-Chloro-phenyl)-3-[5-methyl-2-oxo-1-(1,4,6-trimethyl-1H-indol-3-ylmethyl)-1,2-dihydro-imidazo[4,5-b]pyridin-3-yl]-propionic acid]
2.05 nM	COc1ccc2c(n1)n([C@H](CC(=O)O)c1ccccc1)c(=O)n2Cc1cn(C)c2cccc(C)c12 [(R)-3-[1-(1,4-Dimethyl-1H-indol-3-ylmethyl)-5-methoxy-2-oxo-1,2-dihydro-imidazo[4,5-b]pyridin-3-yl]-3-phenyl-propionic acid]
0.455 nM	COc1ccc([C@@H](CC(=O)O)n2c(=O)n(Cc3cn(C)c4cccc(C)c34)c3ccc(C)nc32)cc1 [(R)-3-[1-(1,4-Dimethyl-1H-indol-3-ylmethyl)-5-methyl-2-oxo-1,2-dihydro-imidazo[4,5-b]pyridin-3-yl]-3-(4-methoxy-phenyl)-propionic acid]
0.61 nM	Cc1cc(C)c2c(Cn3c(=O)n([C@H](CC(=O)O)c4ccccc4)c4ncccc43)cn(C)c2c1 [(R)-3-[2-Oxo-1-(1,4,6-trimethyl-1H-indol-3-ylmethyl)-1,2-dihydro-imidazo[4,5-b]pyridin-3-yl]-3-phenyl-propionic acid]
0.395 nM	Cc1cc(C)c2c(Cn3c(=O)n([C@H](CC(=O)O)c4ccc(F)cc4)c4nc(C(N)=O)ccc43)cn(C)c2c1 [(R)-3-[5-Carbamoyl-2-oxo-1-(1,4,6-trimethyl-1H-indol-3-ylmethyl)-1,2-dihydro-imidazo[4,5-b]pyridin-3-yl]-3-(4-fluoro-phenyl)-propionic acid]
